Molecular target: Potassium channel subfamily K member 9 (Homo sapiens, UniProt Q9NPC2)
Assay: Inhibition of Recombinant TASK-1 and TASK-3 In Vitro: The investigations on the inhibition of the recombinant TASK-1 and TASK-3 channels were conducted using stably transfected CHO cells. The compounds according to the invention were tested in this case by application of 40 mM potassium chloride in the presence of a voltage-sensitive dye according to the method described in detail in the following references [Whiteaker et al., Validation of FLIPR membrane potential dye for high-throughput screening of potassium channel modulators, J. Biomol. Screen. 6 (5), 305-312 (2001); Molecular Devices FLIPR Application Note: Measuring membrane potential using the FLIPR® membrane potential assay kit on Fluorometric Imaging Plate Reader (FLIPR®) systems, http://www.moleculardevices.com/reagents-supplies/assay-kits/ion-channels/flipr-membrane-potential-assay-kits]. The activity of the test substances was determined as their ability to inhibit a depolarization induced in the recombinant cells by 40 mM potassium chloride. The concentration which can block half of this depolarization is referred to as IC50.
Format: cell-based

Sequence of Potassium channel subfamily K member 9 (Q9NPC2 whole entry): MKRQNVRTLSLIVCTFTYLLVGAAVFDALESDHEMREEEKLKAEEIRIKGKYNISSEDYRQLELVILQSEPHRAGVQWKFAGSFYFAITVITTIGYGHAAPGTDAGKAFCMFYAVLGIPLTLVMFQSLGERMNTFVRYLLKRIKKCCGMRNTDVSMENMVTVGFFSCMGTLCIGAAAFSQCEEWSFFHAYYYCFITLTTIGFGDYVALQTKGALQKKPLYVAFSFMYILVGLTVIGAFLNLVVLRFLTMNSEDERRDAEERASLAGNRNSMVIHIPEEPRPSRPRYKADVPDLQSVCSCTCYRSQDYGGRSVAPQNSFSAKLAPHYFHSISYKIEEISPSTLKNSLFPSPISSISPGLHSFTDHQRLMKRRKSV

`CNc1cccc(C(=O)N2C3CCC2CN(Cc2c(-c4ccc(Cl)cc4)nc4ncccn24)C3)n1` was tested, and the IC50 was 1.5 µM.

Source: ChEMBL document CHEMBL5728687, “Diazabicyclic substituted imidazopyrimidines and their use for the treatment of breathing disorders” (2021)
